These results are taken from BindingDB's records for PubMed 9686407 (Sri International, 1998).

Broadly, the Ki is a dissociation constant, usually derived from enzyme kinetics or from competition with a known ligand. Low readings indicate tighter binding, high ones weaker binding.

Structures can show the parent of a compound that is named as a salt.

In assay [1] the target is T1, 5-hydroxytryptamine receptor 1A (Homo sapiens, UniProt P08908).
T1 sequence (P08908 whole entry): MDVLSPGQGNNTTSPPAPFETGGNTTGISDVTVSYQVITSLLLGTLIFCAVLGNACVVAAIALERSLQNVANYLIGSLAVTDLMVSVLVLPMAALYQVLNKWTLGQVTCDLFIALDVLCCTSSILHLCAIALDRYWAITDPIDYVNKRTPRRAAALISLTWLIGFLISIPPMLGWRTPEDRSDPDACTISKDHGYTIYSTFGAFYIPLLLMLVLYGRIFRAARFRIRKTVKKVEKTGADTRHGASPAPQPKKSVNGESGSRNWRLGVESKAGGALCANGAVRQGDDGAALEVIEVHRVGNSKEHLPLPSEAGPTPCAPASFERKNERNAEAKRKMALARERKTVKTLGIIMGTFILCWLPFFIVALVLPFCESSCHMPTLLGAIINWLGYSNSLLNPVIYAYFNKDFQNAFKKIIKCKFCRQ

Assay [2] concerns the target 5-hydroxytryptamine receptor 2A (Rattus norvegicus, UniProt P14842).
Assay [3] deals with T2, 5-hydroxytryptamine receptor 3A (Mus musculus, UniProt P23979).
T2 sequence (P23979 whole entry): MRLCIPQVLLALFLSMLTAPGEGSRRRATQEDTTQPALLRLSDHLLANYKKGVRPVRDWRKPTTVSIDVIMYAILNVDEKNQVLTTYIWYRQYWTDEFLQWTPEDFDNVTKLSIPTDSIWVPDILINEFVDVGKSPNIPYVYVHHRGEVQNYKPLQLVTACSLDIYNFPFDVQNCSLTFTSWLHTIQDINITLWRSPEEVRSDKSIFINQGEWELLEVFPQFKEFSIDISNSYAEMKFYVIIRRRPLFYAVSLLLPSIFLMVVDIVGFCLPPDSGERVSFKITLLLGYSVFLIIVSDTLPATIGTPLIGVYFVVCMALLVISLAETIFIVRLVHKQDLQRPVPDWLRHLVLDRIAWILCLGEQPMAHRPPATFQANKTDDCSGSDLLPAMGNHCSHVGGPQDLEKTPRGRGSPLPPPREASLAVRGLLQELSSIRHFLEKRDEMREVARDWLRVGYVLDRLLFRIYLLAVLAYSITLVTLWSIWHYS

Assay [4] deals with T3, 5-hydroxytryptamine receptor 2C (Rattus norvegicus, UniProt P08909).
T3 sequence (P08909 whole entry): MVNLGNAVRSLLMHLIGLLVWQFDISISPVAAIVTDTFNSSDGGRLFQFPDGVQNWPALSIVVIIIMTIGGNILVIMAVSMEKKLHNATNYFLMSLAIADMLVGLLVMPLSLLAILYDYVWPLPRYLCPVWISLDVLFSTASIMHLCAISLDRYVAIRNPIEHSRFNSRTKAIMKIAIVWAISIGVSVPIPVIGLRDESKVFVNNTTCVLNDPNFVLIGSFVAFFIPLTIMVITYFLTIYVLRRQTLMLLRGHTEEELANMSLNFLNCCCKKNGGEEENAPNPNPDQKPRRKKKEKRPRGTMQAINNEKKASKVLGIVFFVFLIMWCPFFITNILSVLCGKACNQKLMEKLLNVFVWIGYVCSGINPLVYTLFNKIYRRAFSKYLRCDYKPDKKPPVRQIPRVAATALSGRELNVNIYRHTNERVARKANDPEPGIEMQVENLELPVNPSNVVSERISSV

The target in assay [5] is D(1A) dopamine receptor (Homo sapiens, UniProt P21728).
Sequence of D(1A) dopamine receptor (P21728 whole entry): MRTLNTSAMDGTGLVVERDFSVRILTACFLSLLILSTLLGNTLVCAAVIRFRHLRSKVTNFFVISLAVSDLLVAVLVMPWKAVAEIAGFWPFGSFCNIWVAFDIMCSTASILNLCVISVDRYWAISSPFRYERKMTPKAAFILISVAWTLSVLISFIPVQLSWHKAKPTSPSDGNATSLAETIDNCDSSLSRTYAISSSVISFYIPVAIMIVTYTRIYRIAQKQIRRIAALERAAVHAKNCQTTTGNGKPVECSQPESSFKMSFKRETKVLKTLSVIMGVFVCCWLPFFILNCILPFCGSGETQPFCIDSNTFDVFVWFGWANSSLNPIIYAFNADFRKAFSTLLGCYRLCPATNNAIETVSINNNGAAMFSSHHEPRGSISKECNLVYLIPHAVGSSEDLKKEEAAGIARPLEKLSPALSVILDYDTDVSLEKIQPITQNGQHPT

Sequence of 5-hydroxytryptamine receptor 2A (P14842 whole entry): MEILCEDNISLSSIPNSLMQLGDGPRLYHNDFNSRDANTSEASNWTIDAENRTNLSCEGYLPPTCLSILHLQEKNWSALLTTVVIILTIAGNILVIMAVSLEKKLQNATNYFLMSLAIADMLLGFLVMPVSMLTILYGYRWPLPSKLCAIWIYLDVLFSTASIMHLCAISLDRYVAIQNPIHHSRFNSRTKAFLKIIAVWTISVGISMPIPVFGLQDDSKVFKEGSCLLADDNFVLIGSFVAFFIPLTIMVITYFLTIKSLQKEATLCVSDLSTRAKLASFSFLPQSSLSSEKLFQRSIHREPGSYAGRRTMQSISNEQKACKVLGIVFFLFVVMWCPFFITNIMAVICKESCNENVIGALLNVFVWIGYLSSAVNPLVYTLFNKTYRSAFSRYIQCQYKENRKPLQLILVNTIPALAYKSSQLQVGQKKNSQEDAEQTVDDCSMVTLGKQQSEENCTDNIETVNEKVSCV

With `CC(C)(C)[C@]1(O)CCN2C[C@H]3c4ccccc4CCc4cccc(c43)[C@@H]2C1`, the inhibitory constant (Ki) in assay [1] is 0.528 µM; in assay [2] it was 0.0052 µM; in assay [3] it was more than 10 µM; in assay [4], 1.06 µM.

Turning to `CNCCCN1c2ccccc2CCc2ccccc21` [Desmethylimipramine], the Ki amounted to 4.4 µM in assay [3] and 0.748 µM in assay [4].

On to `CCN1CCCC1CNC(=O)c1cc(S(N)(=O)=O)ccc1OC` (centres undefined) [N-[(1-ethylpyrrolidin-2-yl)methyl]-2-methoxy-5-sulfamoylbenzamide], for which the Ki in assay [1], in assay [3] and in assay [5] was more than 10 µM in each case.

For the molecule `OCCN1CCN(CC/C=C2/c3ccccc3Sc3ccc(C(F)(F)F)cc32)CC1` [Fluphenthixol], the Ki in assay [2] was found to be 0.013 µM.

In assay [3], `CN(C)CCCN1c2ccccc2Sc2ccc(Cl)cc21` [[3-(2-Chloro-phenothiazin-10-yl)-propyl]-dimethyl-amine(Chlorpromazine)] registered a Ki of 0.82 µM.

Consider `CCCN(CCC)C1CCc2cccc(O)c2C1` (centres undefined), for which the Ki in assay [2], in assay [3] and in assay [5] was more than 10 µM throughout.

For the molecule `Cc1nc2sccn2c(=O)c1CCN1CCC(=C(c2ccc(F)cc2)c2ccc(F)cc2)CC1`, the figures for the Ki in assay [3] and in assay [5] were more than 10 µM and 0.933 µM, respectively.

For the molecule `CN1CCc2cc(Cl)c(O)cc2[C@@H](c2ccccc2)C1` [SCH 23390,R(+)], the Ki in assay [1] amounted to 0.661 µM; in assay [2], 0.0122 µM; in assay [3] it was 3.91 µM; in assay [4], 0.051 µM.

With `C=CCN1CCc2cc(O)c(O)cc2C(c2ccccc2)C1` (centres undefined), the Ki was 2.11 µM in assay [1], 2.7 µM in assay [2] and 3.04 µM in assay [4].

As for `CCCN1CCC[C@@H]2Cc3n[nH]cc3C[C@H]21` [NSC_54562], the Ki in assay [1] was 1.71 µM; in assay [2], more than 10 µM; in assay [3], more than 10 µM; in assay [4] it was more than 10 µM.

Take `Cc1ccc(N(CC2=NCCN2)c2cccc(O)c2)cc1` [SMR000059054]: the values for the Ki in assay [2], in assay [3] and in assay [4] were 0.222 µM, 4.29 µM and 0.459 µM, respectively.

For the molecule `Oc1cc2c(c(Cl)c1O)CCNC[C@@H]2c1ccccc1` [(R)-6-Chloro-7,8-dihydroxy-1-phenyl-2,3,4,5-tetrahydro-1H-benzo[d]azepinium], the Ki in assay [1] came to 5.52 µM; in assay [2] it was 3.08 µM; in assay [4] it was 1.51 µM.

`Cc1nccn1CC1CCc2c(c3ccccc3n2C)C1=O` (centres undefined) [NSC_68647]: the Ki in assay [1] was more than 10 µM; in assay [3], 0.015 µM; in assay [5], more than 10 µM.

As for `Cc1[nH]c2ccc(O)cc2c1CCN`, the Ki in assay [2] is more than 10 µM; in assay [3], 0.995 µM; in assay [5] it was more than 10 µM; in assay [4], 1.37 µM.

Molecule `COC(=O)[C@@H]1[C@H]2C[C@H]3c4[nH]c5ccccc5c4CCN3C[C@@H]2CC[C@@H]1O` [yohimbic acid methyl ester] returned a Ki in assay [4] of more than 10 µM.

`OCCN1CCN(CCCN2c3ccccc3Sc3ccc(C(F)(F)F)cc32)CC1` [2-[4-[3-[2-(trifluoromethyl)phenothiazin-10-yl]propyl]piperazin-1-yl]ethanol;hydrochloride] registered a Ki in assay [3] of more than 10 µM.

Turning to `C[C@H](N)Cc1ccccc1` [beta-aminopropylbenzene], the Ki in assay [1] is 6.61 µM; in assay [3] it was more than 10 µM.

In the case of `O=C(c1ccc(F)cc1)C1CCN(CCn2c(=O)[nH]c3ccccc3c2=O)CC1` [3-(2-{4-[(4-fluorophenyl)carbonyl]piperidin-1-yl}ethyl)-1,2,3,4-tetrahydroquinazoline-2,4-dione], the Ki is more than 10 µM in assay [3] and 0.069 µM in assay [4].

With `CN1CCc2cccc3c2[C@H]1Cc1ccc(O)c(O)c1-3` [APOKYN], the Ki was 4.38 µM in assay [2], more than 10 µM in assay [3] and 1.1 µM in assay [4].

With `CN1Cc2c(N)cccc2[C@H](c2ccccc2)C1` [(+/-)-2-Methyl-4-phenyl-1,2,3,4-tetrahydro-isoquinolin-8-ylamine], the Ki was 1.18 µM in assay [1], more than 10 µM in assay [3] and more than 10 µM in assay [5].

Consider `O=c1[nH]c2ccccc2n1C1CCN(CCCC(c2ccc(F)cc2)c2ccc(F)cc2)CC1` [1-(1-(4,4-bis(4-fluorophenyl)butyl)piperidin-4-yl)-1H-benzo[d]imidazol-2(3H)-one], for which the inhibition constant (Ki) in assay [2] was found to be 0.049 µM; in assay [3], 3.29 µM; in assay [4], 5.79 µM.

With `CNc1cc(OC)c(C(=O)N[C@H]2CCN(Cc3ccccc3)[C@H]2C)cc1Cl` [Nemonapride], the results for the Ki in assay [2], in assay [3] and in assay [4] were 0.058 µM, 0.526 µM and 3.12 µM, respectively.

For the molecule `Oc1cc2c(cc1O)[C@@H](c1ccccc1)CNCC2`, the Ki is 3.1 µM in assay [1], 6.16 µM in assay [2], more than 10 µM in assay [3] and more than 10 µM in assay [4].

`O=C(CCCN1CCC2(CC1)C(=O)NCN2c1ccccc1)c1ccc(F)cc1` [8-[4-(4-fluorophenyl)-4-oxidanylidene-butyl]-1-phenyl-1,3,8-triazaspiro[4.5]decan-4-one] had a Ki in assay [3] of more than 10 µM.

As for `OCCN1CCN(CC/C=C2/c3ccccc3Sc3ccc(C(F)(F)F)cc32)CC1` [(cis) 2-{4-[3-(2-Trifluoromethyl-thioxanthen-9-ylidene)-propyl]-piperazin-1-yl}-ethanol(Flupentixol)], the values for the Ki in assay [1], in assay [3] and in assay [4] were 8.03 µM, more than 10 µM and 0.295 µM, respectively.

On to `N[C@@H]1C[C@H]1c1ccccc1` [Tranylcypromine,(+)], for which the Ki was 5.96 µM in assay [1], more than 10 µM in assay [2], more than 10 µM in assay [3] and more than 10 µM in assay [4].

`NC(Cc1ccc(O)c(O)c1)C(=O)O` (centres undefined) [2-amino-3-(3,4-dihydroxyphenyl)propanoic acid]: the Ki in assay [2], in assay [3] and in assay [4] was more than 10 µM throughout.

As to `c1ccc2nc(N3CCNCC3)ccc2c1` [2-Piperazin-1-yl-quinoline (Quipazine)], the Ki in assay [2] is 0.092 µM; in assay [3], 0.0032 µM; in assay [5], more than 10 µM; in assay [4], 0.653 µM.

On to `COc1ccccc1N1CCN(CCCCN2C(=O)c3ccccc3C2=O)CC1` [2-{4-[4-(2-Methoxy-phenyl)-piperazin-1-yl]-butyl}-isoindole-1,3-dione], for which the Ki in assay [2] was 0.549 µM; in assay [3], more than 10 µM; in assay [5], 4.51 µM; in assay [4], 4.12 µM.

For the molecule `CC(N)Cc1ccc2c(c1)OCO2` (centres undefined), the Ki in assay [1], in assay [3] and in assay [5] was more than 10 µM in each case.

Regarding `CN(C)C/C=C(/c1ccc(Br)cc1)c1cccnc1` [cis-[3-(4-Bromo-phenyl)-3-pyridin-3-yl-allyl]-dimethyl-amine;HCl], the values for the Ki in assay [3] and in assay [4] were more than 10 µM and 0.482 µM, respectively.

For `NCCc1ccc(O)c(O)c1`, the Ki is 8.25 µM in assay [1], more than 10 µM in assay [2], more than 10 µM in assay [3] and more than 10 µM in assay [4].

Turning to `C=CCN1CCc2c(cc(O)c(O)c2Cl)C(c2ccccc2)C1` (racemic) [SKF 82958], the Ki in assay [1] is 1.78 µM; in assay [2] it was 1.29 µM; in assay [3], more than 10 µM; in assay [4], 4.63 µM.
